Assay results from patent US20240117431A1, “STEM-CELL BASED BIOMARKER DISCOVERY” (THE REGENTS OF THE UNIVERSITY OF CALIFORNIA, priority 2020, published 2024).
“Also recorded” adds a separate entry of the source.

Columns and labels:
UPRT(+)-microglia brains = assay: In vivo labeling of brain RNA in mice transplanted with UPRT-expressing human microglia, biotin dot blot; conditions: IP close to 150 mg/kg, 24-48 hours, FIG. 14
Description: 5-vinyl-uracil (Alfa Aesar #4437903) was prepared in sterile conditions at 4 times the concentration in 100% DMSO, then diluted to 25% DMSO by adding corn oil to a final concentration of 500 mM. The mixture was heated to 37° C. for […] until homogenous. Mice are weighed before intraperitoneal injection (IP) injection to ensure close to 150 mg/kg are injected per treatment. For an (˜20 g) adult mouse typically 60-70 μl are IP injected per treatment. Mice are monitored for signs of distress. After 24-48 hours of treatment, mice were sacrificed and brains were immediately placed into 2 ml of RNAlater and left in 4° C. for 3-5 days. After removing brains from RNAlater, they were homogenized with RNAse-free 1.4 mm steel beads (Next Advance SSB14B-RNA) for 60 seconds and centrifuged at 4° C. for 5 min, maximum speed to separate the fatty layer. The bottom layer is collected, homogenized with 200 ul chloroform and centrifuged for 20 minutes, at 4° C. The aqueous layer is collected and 500 ul isopropanol added. After centrifugation for 30 minutes 4° C., the RNA pellet is washed in 70% Ethanol twice. After removing ethanol, the RNA pellet is resuspended in nuclease-free water and nanodrop to determine the concentration. From each sample, 15 μg of RNA was subjected in tetrazine-biotin ligation at 37° C., 500 RPM for 3 hours. The biotinylated RNA was purified with RNA Zymo Clean and Concentrator #5 and eluted with nuclease-free water. 2 μg of purified RNA was spotted onto a N+ Hybond membrane and UV-crosslinked at 254 nm (120,000 uJ). Membrane is blocked in blocking buffer (0.12 M NaCl, 0.016 M Na2HPO4, 0.008 M NaH2PO4, 0.17 M SDS) and followed by incubation with high sensitivity streptavidin-HRP (Fisher Scientific, Cat #: P121130) at 1:5000 dilution in blocking buffer for 5 minutes. The membrane was washed twice in a Wash A buffer (1:10 dilution of blocking buffer) and twice in Wash B buffer (Tris-saline buffer). It was then incubated for 1-5 min. in ECL Chemiluminescent Substrate (Fisher Scientific, Cat #: P132106) and imaged on a ChemiDoc MP imaging system (Bio-Rad). […]

mutants TgUPRT = assay: Phosphoribosyltransferase activity with recombinant TgUPRT mutants; format: biochemical, Toxoplasma gondii; conditions: five recombinant TgUPRT mutants, FIG. 9A
Description: Enzyme activity assay: The standard activity assay was performed by incubating 10 μL of free extract or 0.5 μg of pure His-tag enzyme with 1 mM Phosphoribosyl pyrophosphate (PRPP), 1 mM uracil, 5 mM MgCl2 in 50 mM PBS buffer pH 7.4 in a final volume of 80 μL. The reaction mixture was incubated at 37° C. for 2-5 min (300 rpm). Enzyme was inactivated by adding 80 μL of cold methanol in ice-bath and heating for 5 min at 100° C. After centrifugation at 9000×g for 5 min, samples were half-diluted with water and the NMP production was analysed by HPLC to quantitatively measure the reaction products as described below in the analytical methods. All determinations were carried out in triplicate assuming Michaelis-Menten conditions, and the maximum error was below 5%. In such conditions, one international activity unit (IU) was defined as the amount of enzyme producing 1 μmol/min of UMP under the assay conditions.
Substrate specificity studies Enzymatic synthesis of the different pyrimidine nucleoside monophosphate (NMP) derivatives was carried out by incubating 0.5 μg of pure His-tag enzyme with 1 mM PRPP, 1 mM pyrimidine base and 5 mM MgCl2 in 50 mM PBS buffer pH 7.4 (1.6-3.2% v/v DSMO). The experiments were performed according to the standard assay. Subsequently, the reaction mixture was processed as described above and the NMP production was analyzed by HPLC.
Analytical methods: The production of NMPs was quantitatively measured with an ACE EXCEL 5 μm CN-ES 250×4.6 mm equilibrated with 100% trimethyl ammonium acetate at a flow rate of 0.8 mL/min. Retention times for the reference bases and NMPs (hereafter abbreviated according to the recommendations of the IUPAC-IUB Commission on Biochemical Nomenclature) were as follows: uracil (Ura), 4.7 min; 5-azido uracil (5-AUra). […]
Following these exciting observations, a more quantitative approach to examined for differences between enzyme mutants and their enzyme kinetics with the analogs. […] Each purified enzyme was incubated with the different substrates and phosphoribosyltransferase activity was measured (FIG. 9A).

(−)TgUPRT HEK cells = assay: Background incorporation of uracil analogs into RNA, streptavidin-HRP dot blot; format: cell-based; conditions: 1 mM, mimics in vivo applications, FIG. 4
Description: (§1) Transfection, labeling of cellular RNA and RNA isolation: After 48h seeding, HEK293 cells were transfected with 2.5 μg of TgUPRT WT or mutant plasmids (pKN-CMV-TgUPRT-WT or -Mutt to Mut17) per 5 cm plate using JetPrime Transfection reagent (Polyplus Transfection, France). At 40h post-transfection, cells were incubated with a final concentration of 200 μM at <1% DMSO from 400 mM stock of uracil analogs (5EU, 5VU, 5AU) or 200 mM SAMU stock for 5 h. For time course study, HEK cells were treated with 200 μM uracil analogs for 0 h, 0.5, 1, 3, 5, 12 and 24 hours. For titrating uracil analog concentration experiments, HEK cells were treated with 0 (DMSO), 50, 100, 200, 500 μM or 1 mM uracil analog for 5h. Treated HEK cells were subjected to total RNA extraction using 1 mL Trizol Reagent (Invitrogen) following the manufacturer instructions.
(§2) Biotinylation via CuAAC and IEDDA: Cu-mediated Azide-Alkyne cycloaddition (CuAAC) click reactions were performed in 50 μL reaction at 22° C. on a shaker for 30 min with click reaction cocktail containing 15 μg of total RNA, 1 mM biotin alkyne or biotin azide, fresh 4.6 mM THPTA to a final concentration of 1 mM, and fresh 10.6 mM sodium ascorbate (NaAsc) at final concentration of 1.77 mM, and 12 mM CuSO4 at final concentration of 200 μM in biotinylation reaction buffer (10 mM TrisHCI, 1 mM EDTA, pH7.4). The biotinylated RNA was purified using RNA clean & Concentrator-5 kit (Zymo Research, Cat #R1013) according to the manufacturer instructions and eluted in 21 μL of nuclease free water.
(§3) Inverse electron demand [4+2] Diels-Alder cycloaddition (IEDDA) click reactions were performed in 50 μL at 37° C. or 22° C. (RT) for 3h on mixer at 500 rpm containing 10-15 μg of total RNA, 1 mM final concentration of biotin-benzyl tetrazine (Sigma Aldrich, Cat #793329-5MG) in nuclease free water. Clicked total RNA was purified using RNA clean & Concentrator-5 kit (Zymo Research, Cat #R1013) according to the manufacturer instructions, and RNA was eluted in 21 μL of nuclease free water.
HRP-streptavidin dot blot analysis: All gel reagents were from Bio-Rad. For dot blot analysis, 2 μg of clicked total RNA was applied onto Hybond-N+ membrane (GE Healthcare) as individual dots and UV-crosslinked (254 nm) to a membrane (Stratalinker UV crosslinker). Membranes were blocked in blocking buffer (0.12 M NaCl, 0.016 M Na2HPO4, 0.008 M NaH2PO4, 0.17 M SDS) and followed by incubation with high sensitivity streptavidin-HRP (Fisher Scientific, Cat #: P121130) at 1:5000 dilution in blocking buffer for 5 minutes. The membrane was washed twice in a Wash A buffer (1:10 dilution of blocking buffer) and twice in Wash B buffer (Tris-saline buffer). […]

[1] = target: T1, uracil monophosphate synthetase (UMPS) overexpressed in HEK cells (Homo sapiens, UniProt P11172); assay: RNA incorporation with overexpression of UMPS, dot blot; format: cell-based; conditions: 1 mM, 24 hours, FIG. 12
T1 construct: expressed in transfected cells; host or cells: HEK cells
T1 sequence (P11172 1-480): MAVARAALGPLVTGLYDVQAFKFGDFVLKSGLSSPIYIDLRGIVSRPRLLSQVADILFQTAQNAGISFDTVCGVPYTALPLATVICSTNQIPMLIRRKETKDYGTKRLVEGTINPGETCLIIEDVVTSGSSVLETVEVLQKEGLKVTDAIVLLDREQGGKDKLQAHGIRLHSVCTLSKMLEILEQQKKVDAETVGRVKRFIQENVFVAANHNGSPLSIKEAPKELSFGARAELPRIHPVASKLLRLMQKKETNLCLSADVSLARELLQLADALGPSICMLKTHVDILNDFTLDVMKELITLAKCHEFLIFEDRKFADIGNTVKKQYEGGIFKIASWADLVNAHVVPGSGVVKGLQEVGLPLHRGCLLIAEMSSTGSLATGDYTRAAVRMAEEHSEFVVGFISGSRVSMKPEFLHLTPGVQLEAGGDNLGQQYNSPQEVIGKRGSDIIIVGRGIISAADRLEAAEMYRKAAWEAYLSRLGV
Description: Analogs were incubated for 24 hours at 1 mM concentration in HEK cells. RNA was extracted and biotinylated using MTSEA-Biotin, followed by dot-blot analysis. Strep-HRP=Streptavidin conjugated Horseradish peroxidase. MeBI=methylene blue staining serving as loading control.

[2] = target: T2, wild-type (WT) TgUPRT in HEK cells (Toxoplasma gondii, UniProt Q26998); assay: In-cell RNA incorporation by wild-type TgUPRT, streptavidin dot blot; format: cell-based; conditions: wild-type TgUPRT active site
T2 construct: 6xHis; expressed in transfected cells; host or cells: HEK293 (HEK293T)
T2 sequence (Q26998 whole entry): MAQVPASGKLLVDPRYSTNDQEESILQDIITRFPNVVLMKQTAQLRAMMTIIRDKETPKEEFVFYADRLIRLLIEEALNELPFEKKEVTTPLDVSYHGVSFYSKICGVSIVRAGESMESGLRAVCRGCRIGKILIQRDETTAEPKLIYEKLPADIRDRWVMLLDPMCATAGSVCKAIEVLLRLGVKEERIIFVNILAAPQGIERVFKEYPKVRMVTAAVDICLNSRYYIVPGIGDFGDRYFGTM
Description: as §1, §2, §3
HRP-streptavidin dot blot analysis: All gel reagents were from Bio-Rad. […]

## C=Cc1cn([C@@H]2O[C@H](CO)[C@@H](O)[C@H]2O)c(=O)[nH]c1=O [5-vinyluridine, reference compound]
UPRT(+)-microglia brains
  incorporation into brain RNA, UPRT(+)-microglia transplanted: incorporated into brain RNA; also recorded: incorporation

## O=c1cc[nH]c(=O)[nH]1 [Uracil, uracil, reference compound]
Mutants TgUPRT
  reactivity with the mutants (phosphoribosyltransferase activity): reactivity of uracil for all five mutants was observed

## [N-]=[N+]=Nc1c[nH]c(=O)[nH]c1=O [compound 4, 5-Azidopyrimidine-2,4(1H,3H)-dione]
(−)TgUPRT HEK cells
  incorporation into RNA at higher concentration: higher incorporation

## O=c1[nH]c(=S)ccn1[C@@H]1O[C@H](CO)[C@@H](O)[C@H]1O [4-thiouridine, reference compound]
[1]
  incorporation into cellular RNA with UMPS overexpression: incorporation

## O=c1[nH]ccc(=S)[nH]1 [4-thiouracil, reference compound]
[2]
  TgUPRT-dependent incorporation into cellular RNA: has the ability to be incorporated into cellular RNA
[1]
  incorporation into cellular RNA with UMPS overexpression: higher amount
